Measurements published in publication PMC11157491, “Novel Alaninamide Derivatives with Drug-like Potential for Development as Antiseizure and Antinociceptive Therapies—In Vitro and In Vivo Characterization” (ACS Chemical Neuroscience, 2024).

Key:
mice [1] = assay: 6 Hz (32 mA) psychomotor seizure model; format: in vivo; details: Mus musculus, ip; for responders at 100 mg/kg: 100 mg/kg i.p., 0.5 h; for ED50: mice, pretreatment 0.5 h
Description: (§1) Identification and profiling of new ASM candidate compounds are still largely based on predictive animal models of seizures/epilepsy, while a range of in silico and in vitro approaches (i.e., molecular modeling or high throughput screening, etc.) are increasingly used in the early stages of ASM discovery.[31] The Epilepsy Therapy Screening Program (ETSP) of the National Institute of Neurological Disorders and Stroke (NIH, Bethesda, MD) has enabled the discovery of several approved ASMs by focusing on the in vivo testing of compounds synthesized by both academic laboratories and industry.[32] The ETSP provides a broad panel of seizure tests (ca. 30 rodent models), but a subset of them is used for the initial screening of new compounds with potential antiseizure activity. The routinely used seizure models include: (i) the MES test, which is an experimental model of tonic–clonic seizures, (ii) the 6 Hz model (32 mA) of focal seizures, and (iii) the scPTZ model of generalized absence or myoclonic seizures.[33],[34] Consequently, in the current studies, all final compounds 21–36 and 45–48 were initially studied in the MES and the 6 Hz (32 mA) seizure models after intraperitoneal (i.p.) administration at a screening dose of 100 mg/kg in mice at a time point of 0.5 h (the screening group consisted of four mice, and the results obtained are summarized in Table S1).
(§2) These parameters were then used to calculate the protective indexes (PIs, PI = TD50/ED50), which describe the therapeutics window of potential drug candidates. The ED50, TD50, and PI values for the tested compounds together with data of their chemical prototypes KA-11 and KJ-5 and reference ASMs are summarized in Table 2.
(§3) The adult male Albino Swiss mice weighed between 22 and 26 g were used in the in vivo studies. They were housed under standardized housing conditions in colony cages and had free access to food as well as tap water. The animals were left to adapt under laboratory conditions for 7 days. All procedures involving animals and their care were performed in accordance with the current European Community and Polish legislation on animal experimentation.
(§4) In the initial screening studies, four mice per group were randomly assigned to each experimental group (each mouse was used only once). To evaluate the ED50 or TD50 values, four groups consisting of eight animals were injected with various doses of tested compounds. The protective indexes (PIs) for the compounds investigated and reference ASMs were calculated by dividing the TD50 value, as determined in the chimney test, by the respective ED50 value, as determined in the MES, scPTZ, or 6 Hz (32 or 44 mA) tests (PI = TD50/ED50). The PIs are a measure of the potential therapeutic window of the tested agent.
(§5) All substances were suspended in Tween 80 (1% aqueous solution) and administered i.p. as a single injection at a dose of 10 mL/kg. On each day of experimentation, fresh solutions were prepared. The detailed in vivo procedures are described elsewhere: the maximal electroshock seizure test (MES),[60] the subcutaneous pentylenetetrazole seizure test (scPTZ),[61] the 6 Hz psychomotor seizure model (32 and 44 mA),[62] and the chimney test.[63] The reference ASMs were purchased from commercial suppliers: VPA (Sigma-Aldrich, St. Louis, MO), LCS, and LEV (UCB Pharma, Braine l’Alleud, Belgium).

mice [2] = assay: Maximal electroshock (MES) seizure test; format: in vivo; details: for antiseizure protection in MES screening / responders at 100 mg/kg: 100 mg/kg i.p., 0.5 h; for antiseizure protection in MES screening: four mice; for responders at 100 mg/kg / ED50: Mus musculus, ip; for responders at 100 mg/kg: read-out: MES: number of mice protected/number of mice tested (converted); for ED50: mice, pretreatment 0.5 h
Description: as §1, §2, §3, §4, §5

TRPV1 (VR1) (h) = target: T1, TRPV1 (VR1) (h) (Homo sapiens, UniProt Q8NER1); assay: TRPV1 antagonist effect functional assay; format: cell-based; details: human recombinant CHO cells; for inhibition at 10 µM: read-out: % inhibition of control agonist response
T1 construct: Eurofins (contract assay)
Description: For many years, the TRPV1 channel, permeable to calcium and sodium ions, has been recognized as a promising molecular target for novel analgesics.[19] […] Therefore, bearing in mind the involvement of TRPV1 in pain sensation and potentially in seizure induction, in the next step of the in vitro studies, the TRPV1 antagonist activity was determined for all compounds obtained (Table 6).
Binding/functional studies were carried out commercially in Eurofins Laboratories (Poitiers, France) and Eurofins Panlabs Discovery Services Taiwan, Ltd. (New Taipei City, Taiwan) using testing procedures that were reported previously (for details, see Table S2).
Table S2. Radioligand binding and functional assays. […]
TRPV1 (VR1) (h) (antagonist effect) […]
Assays were performed commercially in Eurofins Laboratories ( Poitiers, France) or Eurofins Panlabs Discovery Services
Taiwan, Ltd. (New Taipei City, Taiwan).

mice [3] = assay: Subcutaneous pentylenetetrazole (scPTZ) seizure test; format: in vivo; details: for protection in scPTZ screening / scPTZ: number of mice protected/number of mice tested: 100 mg/kg i.p.; for scPTZ: number of mice protected/number of mice tested: 0.5 h
Description: as §2, §4, §5

[4] = four mice, read-out: protection in 6 Hz (32 mA) screening
[5] = read-out: 6 Hz (32 mA): number of mice protected/number of mice tested (converted)

T1 sequence (Q8NER1 whole entry): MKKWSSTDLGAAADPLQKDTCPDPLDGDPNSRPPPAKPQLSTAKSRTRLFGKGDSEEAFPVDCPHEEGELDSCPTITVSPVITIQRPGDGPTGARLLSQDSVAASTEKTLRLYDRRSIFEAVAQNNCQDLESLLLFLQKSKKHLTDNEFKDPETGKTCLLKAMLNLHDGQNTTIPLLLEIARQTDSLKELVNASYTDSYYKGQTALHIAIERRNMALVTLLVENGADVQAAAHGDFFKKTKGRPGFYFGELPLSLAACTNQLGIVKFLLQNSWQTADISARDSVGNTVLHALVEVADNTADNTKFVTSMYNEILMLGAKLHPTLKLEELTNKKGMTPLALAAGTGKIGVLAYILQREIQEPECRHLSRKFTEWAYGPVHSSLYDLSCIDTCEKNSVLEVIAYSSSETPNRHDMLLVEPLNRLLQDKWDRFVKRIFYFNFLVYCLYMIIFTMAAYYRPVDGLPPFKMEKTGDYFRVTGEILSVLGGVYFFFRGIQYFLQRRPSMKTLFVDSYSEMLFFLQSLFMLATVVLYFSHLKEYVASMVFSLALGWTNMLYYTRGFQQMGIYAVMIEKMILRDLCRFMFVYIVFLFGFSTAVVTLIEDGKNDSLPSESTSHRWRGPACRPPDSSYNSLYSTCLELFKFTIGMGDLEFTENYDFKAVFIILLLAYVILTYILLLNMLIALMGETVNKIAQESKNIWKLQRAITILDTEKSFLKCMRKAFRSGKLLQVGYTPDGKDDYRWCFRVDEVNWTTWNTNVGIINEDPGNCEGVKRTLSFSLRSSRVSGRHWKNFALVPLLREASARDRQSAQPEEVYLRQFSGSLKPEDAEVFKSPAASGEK

SMILES | melting point [°C] | inhibition at 10 µM (TRPV1 (VR1) (h)) [%] | Kb (TRPV1 (VR1) (h)) [µM] | responders at 100 mg/kg (mice [1]; [4]) [%] | responders at 100 mg/kg (mice [1]; [5]) [%] | ED50 (mice [1]) [mg/kg] | antiseizure protection in MES screening (mice [2]) [%] | responders at 100 mg/kg (mice [2]) [%] | ED50 (mice [2]) [mg/kg] | protection in scPTZ screening (mice [3]) | scPTZ: number of mice protected/number of mice tested (mice [3]) | ED50 (mice [3]; Mus musculus, ip, mice) [mg/kg]
CC(=O)NC(C)C(=O)N1CCN(c2ccc(Cl)c(Cl)c2)CC1 (centres unmarked) [Compound 24, N-(1-(4-(3,4-Dichlorophenyl)piperazin-1-yl)-1-oxopropan-2-yl)acetamide] | 152.1 to 152.9 | 51.5 | 4.5 | 100 | 100 | 41.4 | 75 | 75 | > 150 | 75% | 3/4 | 116
CC(=O)NC(C)C(=O)NC1CCN(c2cccc(OC(F)(F)F)c2)C1 (centres unmarked) [Compound 47, 2-Acetamido-N-(1-(3-(trifluoromethoxy)phenyl)pyrrolidin-3-yl)propanamide] | 164.8 to 165.9 | -8.3 |  | 50 | 50 |  |  | 0 |  |  |  | 
CC(=O)NC(C)C(=O)NC1CCN(c2ccccc2)C1 (centres unmarked) [Compound 45, 2-Acetamido-N-(1-phenylpyrrolidin-3-yl)propanamide] | 176.6 to 177.8 | -11.6 |  |  | 0 |  |  | 0 |  |  |  | 
CC(=O)NC(C)C(=O)N1CCN(c2cccc(Oc3ccccc3)c2)CC1 (centres unmarked) [Compound 29, N-(1-oxo-1-(4-(3-Phenoxyphenyl)piperazin-1-yl)propan-2-yl)acetamide] | 133.6 to 134.3 | 104 | 4.2 | 75 | 75 | 41.2 |  | 100 | 39.9 | no activity | 0/4 | 
CC(=O)NC(C)C(=O)NC1CCN(c2cccc(C(F)(F)F)c2)C1 (centres unmarked) [Compound 46, 2-Acetamido-N-(1-(3-(trifluoromethyl)phenyl)pyrrolidin-3-yl)propanamide] | 162.8 to 163.7 | -10 |  |  | 0 |  |  | 0 |  |  |  | 
CC(=O)NC(C)C(=O)N1CCN(c2ccc(Cl)cc2)CC1 (centres unmarked) [Compound 23, N-(1-(4-(4-Chlorophenyl)piperazin-1-yl)-1-oxopropan-2-yl)acetamide] | 144.9 to 145.8 | -4.6 |  |  | 0 |  |  | 0 |  |  |  | 
CC(=O)NC(C)C(=O)N1CCN(c2cc(Cl)cc(Cl)c2)CC1 (centres unmarked) [Compound 25, N-(1-(4-(3,5-Dichlorophenyl)piperazin-1-yl)-1-oxopropan-2-yl)acetamide] | 164.6 to 165.4 | 8.1 |  | 75 | 75 | 56.1 | 75 | 75 | 52.9 | 50% | 2/4 | 
CC(=O)NC(C)C(=O)N1CCN(c2ccccc2)CC1 (centres unmarked) [Compound 21, N-(1-oxo-1-(4-Phenylpiperazin-1-yl)propan-2-yl)acetamide] | 113.6 to 114.9 | 1.6 |  | 25 | 25 |  |  | 0 |  |  |  | 
CC(=O)NC(C)C(=O)N1CCN(c2cccc(Cl)c2)CC1 (centres unmarked) [Compound 22, N-(1-(4-(3-Chlorophenyl)piperazin-1-yl)-1-oxopropan-2-yl)acetamide] | 125.8 to 126.5 | 12.5 |  | 75 | 75 | 77.3 | 100 | 100 | 122 | 25% | 1/4 | 
CC(=O)NC(C)C(=O)NC1CCN(c2cccc(SC(F)(F)F)c2)C1 (centres unmarked) [Compound 48, 2-Acetamido-N-(1-(3-((trifluoromethyl)thio)phenyl)pyrrolidin-3-yl)propanamide] | 162.2 to 163.3 | 4.2 |  | 50 | 50 |  |  | 0 |  |  |  | 
CC(NC(=O)c1ccccc1)C(=O)N1CCN(c2cccc(Cl)c2)CC1 (centres unmarked) [Compound 31, N-(1-(4-(3-Chlorophenyl)piperazin-1-yl)-1-oxopropan-2-yl)benzamide] | 177.8 to 178.5 | 4.6 |  |  | 0 |  |  | 0 |  |  |  | 

Second part, led by results:

melting point [°C] | inhibition at 10 µM (TRPV1 (VR1) (h)) [%] | Kb (TRPV1 (VR1) (h)) [µM] | SMILES | responders at 100 mg/kg (mice [1]; [4]) [%] | responders at 100 mg/kg (mice [1]; [5]) [%] | ED50 (mice [1]) [mg/kg] | antiseizure protection in MES screening (mice [2]) [%] | responders at 100 mg/kg (mice [2]) [%] | ED50 (mice [2]) [mg/kg] | protection in scPTZ screening (mice [3]) | scPTZ: number of mice protected/number of mice tested (mice [3]) | ED50 (mice [3]; Mus musculus, ip, mice) [mg/kg]
144.5 to 145.4 | -13.6 |  | CC(C)NC(=O)NC(C)C(=O)N1CCN(c2cccc(C(F)(F)F)c2)CC1 (centres unmarked) [Compound 36, 1-Isopropyl-3-(1-oxo-1-(4-(3-(trifluoromethyl)phenyl)piperazin-1-yl)propan-2-yl)urea] | 25 | 25 |  | 25 | 25 |  |  |  | 
147.4 to 148.2 | -11.9 |  | CC(C)NC(=O)NC(C)C(=O)N1CCN(c2cccc(Cl)c2)CC1 (centres unmarked) [Compound 35, 1-(1-(4-(3-Chlorophenyl)piperazin-1-yl)-1-oxopropan-2-yl)-3-isopropylurea] |  | 50 |  |  | 0 |  |  |  | 
165.8 to 166.5 | -16.1 |  | CC(NC(=O)c1ccccc1)C(=O)N1CCN(c2cccc(C(F)(F)F)c2)CC1 (centres unmarked) [Compound 32, N-(1-oxo-1-(4-(3-(Trifluoromethyl)phenyl)piperazin-1-yl)propan-2-yl)benzamide] | 25 | 25 |  |  | 0 |  |  |  | 
136.4 to 137.3 | -5.3 |  | CCNC(=O)NC(C)C(=O)N1CCN(c2cccc(C(F)(F)F)c2)CC1 (centres unmarked) [Compound 34, 1-Ethyl-3-(1-oxo-1-(4-(3-(trifluoromethyl)phenyl)piperazin-1-yl)propan-2-yl)urea] |  | 50 |  |  | 0 |  |  |  | 
145.1 to 146.2 | -11.7 |  | CCNC(=O)NC(C)C(=O)N1CCN(c2cccc(Cl)c2)CC1 (centres unmarked) [Compound 33, 1-(1-(4-(3-Chlorophenyl)piperazin-1-yl)-1-oxopropan-2-yl)-3-ethylurea] |  | 50 |  |  | 0 |  |  |  | 
132.8 to 133.3 | -15.9 |  | CC(=O)NC(C)C(=O)N1CCN(c2ccc(C(F)(F)F)cc2)CC1 (centres unmarked) [Compound 27, N-(1-oxo-1-(4-(4-(Trifluoromethyl)phenyl)piperazin-1-yl)propan-2-yl)acetamide] |  | 0 |  | 25 | 25 |  |  |  | 
